# “Also recorded” adds a separate entry of the source.
# Assays:
# [1] = test system: Human microvascular endothelial cells (ECs); test: Telomere length by monochrome multiplex qPCR (MMqPCR); type: cell-based; conditions: vs vehicle
# Protocol: (§1) Cell culture. Human microvascular endothelial cells (ECs) purchased from Lonza (cat # CC-2543, Basel, Switzerland) were cultured continuously for three passages from passage (P) 4 to P6 in the presence of clinically relevant doses of esomeprazole or vehicle (DMSO) (Shin J M, Kim N. Pharmacokinetics and pharmacodynamics of the proton pump inhibitors. Journal of neurogastroenterology and motility. 2013; 19:25-35). All in vitro experiments were performed at P6 upon confluency. ECs were cultured and maintained in EBM-2 Basal Medium (cat # CC-3156, Lonza, Basel, Switzerland) supplemented with EGM-2 MV SingleQuots™ Kit—growth factors, cytokines, and antibiotics (cat # CC-4147, Lonza, Basel, Switzerland).
# Telomere length and telomerase activity. Telomere length in ECs was measured using monochrome multiplex qPCR (MMqPCR) assay as described previously (Ramunas J, et al., Transient delivery of modified mrna encoding tert rapidly extends telomeres in human cells. FASEB journal: official publication of the Federation of American Societies for Experimental Biology. 2015; 29:1930-1939). The telomeric repeat amplification protocol (TRAP) was performed using TRAPeze® Telomerase Detection Kit (EMD Millipore Inc. cat # S7700, Darmstadt, Germany). […] In brief, ECs treated with esomeprazole or vehicle were collected, counted and total protein was isolated from 100,000 cells. […]
# PAI-1 = test: Western blot for PAI-1 protein expression; type: cell-based, human; conditions: vs vehicle
# Protocol: as §1
# Western blot analysis. Preparation of cell lysate, SDS-PAGE, transfer of proteins onto membrane and western blotting was performed as described previously (Rajapakse A G, et al., Hyperactive s6k1 mediates oxidative stress and endothelial dysfunction in aging: Inhibition by resveratrol. PloS one. 2011; 6:e19237.6). To detect PAI-1 protein expression anti-PAI-1 rabbit monoclonal antibody (Cell Signaling Technology, Inc. cat #11907S, Danvers, Mass.) was used and anti-α-Tubulin mouse monoclonal antibody (Sigma cat # T5168, St. Louis, Mo.) was used to normalize expression.
# [2] = test system: Human microvascular endothelial cells (ECs); test: RT2 Profiler PCR array, 331 genes from 5 pathways; type: cell-based; conditions: esomeprazole compared to vehicle (DMSO)
# Protocol: as §1
# (§2) Quantitative PCR and PCR array. Total RNA was isolated from cultured cells using PerfectPure RNA Cultured Cell Kit-50 from 5 PRIME (cat #2900319, San Francisco, Calif.) according to the manufacturer's instruction. […] Quantitative PCR (qPCR) was performed using Taqman gene expression assays (Applied Biosystems, Foster City, Calif.). All genes analyzed for expression (listed in the table below) were normalized to GAPDH expression and expressed as relative fold changes using the ΔCt method of analysis. Gene expression of shelterin complex genes was quantified using SYBR™ Green Real Time PCR master mix. […] Name, catalog numbers and genes detected by the arrays are listed below.
# [3] = poor metabolizers (about 3% of whites, 23% of Asians); cited from earlier work
# [4] = test system: Human microvascular endothelial cells (ECs); test: BrdU cell proliferation ELISA; type: cell-based; conditions: chronic exposure, 3 passages, vs vehicle
# Protocol: as §1
# [5] = test system: Human microvascular endothelial cells (ECs); test: Long term studies of endothelial histology (81 days after drug discontinued); type: cell-based; conditions: 5 or 10 μmol/L for 3 passages, then 81 days without drug, vs vehicle
# Protocol: Long term studies of endothelial histology. After ECs were exposed to vehicle or ESO (5 or 10 uM) through 3 passages (P4-P6), the treatment with ESO or vehicle was discontinued when the cells reached confluency at P6. Subsequently the cells in all groups were maintained in endothelial growth medium which was routinely replaced with fresh medium every 48 hours for 81 days. Microphotographs were taken at regular intervals throughout, and on the final day of culture.
# acid phosphatase = test: Acid phosphatase activity assay, EC lysate; type: cell-based, human; conditions: ECs treated chronically, 5 and 10 μmol/L, P4-6, vs vehicle
# Protocol: (§3) Cell culture. Human microvascular endothelial cells (ECs) purchased from Lonza (cat # CC-2543, Basel, Switzerland) were cultured continuously for three passages from passage (P) 4 to P6 in the presence of clinically relevant doses of esomeprazole or vehicle (DMSO) (Shin J M, Kim N. Pharmacokinetics and pharmacodynamics of the proton pump inhibitors. Journal of neurogastroenterology and motility. 2013; 19:25-35). All in vitro experiments were performed at P6 upon confluency. […]
# (§4) Lysosomal studies. Cellular pH, lysosomal cathepsin B and protein aggregation were measured in live ECs using pHrodo™ Green/Red dextran, 10,000 MW dye (cat: P35368/P35372, MOLECULAR PROBES®, Life Technologies, Carlsbad, Calif.), Magic Red™ Cathepsin B Assay Kit (cat: 938, ImmunoChemistry Technologies LLC, Bloomington, Minn.) and PROTEOSTAT® Protein aggregation assay (cat: ENZ-51023-KP002, Enzo Life Sciences, Inc., Farmingdale, N.Y.). The pHrodo™ Green dextran when endocytosed permits visualization of endosomal pH, with an inverse non-linear relationship of fluorescence intensity to pH. […] Fluorescence images were taken using Olympus IX51 Inverted fluorescence microscope at 10× magnification and 40× for protein aggregation. All images were quantified using NIH ImageJ 1.47v software. […] Absorbance was measured using Tecan Infinite® M1000 PRO multimode reader at 405 nm (Tecan, Mannedorf, Switzerland).
# [6] = test system: Human microvascular endothelial cells (ECs); test: Network formation assay on growth factor reduced matrigel (angiogenic capacity); type: cell-based; conditions: growth factor-depleted matrigel, vs vehicle
# Protocol: as §1
# Network formation assay to measure angiogenic capacity. In order to assess angiogenic capacity of ECs, growth factor reduced matrigel from BD Biosciences (cat #354230, San Jose, Calif.) was used. In brief, 24 well flat transparent plates were coated with 200 μl of matrigel/well and allowed to set at 37° C. for one hour. Subsequently, 1×10^5 cells/well were seeded and allowed to incubate for 16 hours at 37° C. Several images per well were obtained using Olympus IX51 Inverted fluorescence and bright field microscope. Network branching was quantified using NIH ImageJ software. Total length is equal to the summed length of all segments, branches and isolated branches not within the main network. […]
# [7] = test system: Human microvascular endothelial cells (ECs); test: Senescence-associated β-galactosidase (SA-β-gal) staining with SYTO cell count; type: cell-based; conditions: for endothelial senescence / aging (overall finding): chronic exposure of human ECs; for SA-β-gal-positive cells / total cell count per microscopic field (SYTO-green staining): chronic treatment, at P6, vs vehicle
# Protocol: as §1
# Senescence-associated β-galactosidase (SA-β-gal) staining. Senescence of ECs was measured using the Cellular Senescence Assay kit from Cell Biolabs, Inc. (Cat: CBA-230, San Diego, Calif.). The protocol was performed according to the manufacturer's guide. Briefly, Ecs treated continuously for 3 passages with esomeprazole or vehicle were plated in a 6 well plate. Upon confluency, cells were initially fixed and later incubated with SA-β-gal working solution for 16 hours in a non-humidified CO2 free incubator at 37° C. After incubation the cells were counter stained with SYTO® GREEN fluorescent nucleic acid stain (Life Technologies). Several random images per well were taken using light and fluorescent microscope. The SA-β-gal positive cells were counted manually and total cell number per field was quantified using NIH ImageJ software.
# [8] = test system: N-acetyl-β-d-glucosaminidase; test: N-Acetyl-β-D-Glucosaminidase (NAG) activity assay, EC lysate; type: cell-based, human; conditions: ECs treated chronically, vs vehicle
# Protocol: as §3, §4
# [9] = test system: Human microvascular endothelial cells (ECs); test: Lysosomal pH by pHrodo Green/Red dextran fluorescence in live ECs; type: cell-based
# Protocol: as §3, §4
# [10] = test system: Human microvascular endothelial cells (ECs); test: Superoxide anion by dihydroethidium (DHE) live cell imaging; type: cell-based; conditions: ECs treated chronically, vs vehicle
# Protocol: as §3
# (§5) Measurement of superoxide and nitric oxide. Superoxide and nitric oxide were measured in ECs using live cell imaging dyes; DHE (Molecular Probes® cat # D-1168, Eugene, Oreg.) for superoxide and DAF-2DA (Sigma cat #50277, St. Louis, Mo.) for nitric oxide measurement according to the published protocol (Yepuri G, et al., Positive crosstalk between arginase-ii and s6k1 in vascular endothelial inflammation and aging. Aging cell. 2012; 11:1005-1016). Several images per well were captured using Olympus IX51 Inverted fluorescence microscope. Relative fluorescence intensities of images were quantified using NIH ImageJ software. The total NO concentration (NOx) was determined using the Griess colorimetric assay as previously described (Ghebremariam Y T, et al., Fxr agonist int-747 upregulates ddah expression and enhances insulin sensitivity in high-salt fed dahl rats. PloS one. 2013; 8:e60653).
# [11] = test system: Human microvascular endothelial cells (ECs); test: Nitric oxide by DAF-2DA live cell imaging; type: cell-based; conditions: ECs treated chronically, vs vehicle
# Protocol: as §3, §5
# telomerase = test: Telomeric repeat amplification protocol (TRAP) telomerase activity; type: cell-based, human; conditions: TRAP assay, esomeprazole and vehicle ECs
# Protocol: Telomere length and telomerase activity. Telomere length in ECs was measured using monochrome multiplex qPCR ([…]) assay as described previously (Ramunas J, et al., Transient delivery of modified mrna encoding tert rapidly extends telomeres in human cells. FASEB journal: official publication of the Federation of American Societies for Experimental Biology. 2015; 29:1930-1939). The telomeric repeat amplification protocol (TRAP) was performed using TRAPeze® Telomerase Detection Kit (EMD Millipore Inc. cat # S7700, Darmstadt, Germany). Experiment was performed according to the manufacturer's instructions. In brief, ECs treated with esomeprazole or vehicle were collected, counted and total protein was isolated from 100,000 cells. The amount of lysate used per reaction was normalized to the amount of 1,000 cells for ECs and 500 cells for telomerase positive control (PC). In short, TRAP was performed at 30° C. for 30 minutes and resulting products were amplified in a 29 cycle PCR reaction. Heat inactivated (hi) lysate samples for each condition were used as internal negative controls.
# [12] = test system: Human microvascular endothelial cells (ECs); test: Quantitative PCR (Taqman) gene expression in ECs; type: cell-based; conditions: RT-PCR, vs vehicle
# Protocol: as §1
# Quantitative PCR and PCR array. Total RNA was isolated from cultured cells using PerfectPure RNA Cultured Cell Kit-50 from 5 PRIME (cat #2900319, San Francisco, Calif.) according to the manufacturer's instruction. Complementary DNA (cDNA) was prepared using gScript™ cDNA SuperMix (Quanta BioSciences, Inc. cat #95048, Beverly, Mass.). Quantitative PCR (qPCR) was performed using Taqman gene expression assays (Applied Biosystems, Foster City, Calif.). All genes analyzed for expression (listed in the table below) were normalized to GAPDH expression and expressed as relative fold changes using the ΔCt method of analysis. Gene expression of shelterin complex genes was quantified using SYBR™ Green Real Time PCR master mix. Primers for genes related to shelterin complex were obtained from Integrated DNA Technologies, Inc. (San Jose, Calif.) and are listed in the table below. RT^2 Profiler PCR Array (Qiagen, Hilden, Germany) was used to assess expression of selected genes associated with specific cellular functions following manufacturer's instructions. Name, catalog numbers and genes detected by the arrays are listed below.
# [13] = test system: Human microvascular endothelial cells (ECs); test: Total nitrate/nitrite (NOx) by Griess colorimetric assay; type: cell-based; conditions: ECs treated chronically, vs vehicle
# Protocol: as §3, §5
# lysosomal cathepsin B = test: Magic Red Cathepsin B assay in live ECs; type: cell-based, human; conditions: ECs treated chronically, 5 and 10 μmol/L, P4-6, vs vehicle
# Protocol: as §3, §4
# shelterin complex = test: Shelterin complex gene expression by SYBR Green RT-PCR; type: cell-based, human; conditions: vs vehicle
# Protocol: as §1, §2
# [14] = test system: Human microvascular endothelial cells (ECs); test: PROTEOSTAT protein aggregation assay in ECs; type: cell-based; conditions: ECs treated chronically, vs vehicle
# Protocol: as §3, §4
structure (smiles),measurement,setting,value
COc1ccc2nc([S@@+]([O-])Cc3ncc(C)c(OC)c3C)[nH]c2c1 [esomeprazole],telomere length,[1],significant decrease
same,plasminogen activator inhibitor (PAI-1) protein expression,PAI-1,upregulated
same,"Expression of genes (PCR array) strongly up-regulated, Table 4 gene list",[2]; 52 genes listed AGTR1 to ZEB2,Expressin of genes (PCR array) that are strongly up-regulated (>2 fold) upon
same,"Expression of genes (PCR array) strongly up regulated, Table 5 gene list",[2]; genes listed ACE to VWF,Expression of genes (PCR array) that are strongly up regulated (>2 fold) upon
same,increase in plasma concentration in CYP2C19 poor metabolizers,[3],3 fold
same,cell proliferation (5-bromo-2′-deoxyuridine assay),[4],dose-dependently impaired
same,"histology at the 3-month time point (cell loss, EndoMT)",[5],acceleration of EndoMT; also recorded: some cell loss or EndoMT
same,activity of acid phosphatase,acid phosphatase,reduced
same,angiogenic capacity of ECs (network formation),[6],impaired
same,endothelial senescence / aging (overall finding),[7],accelerated
same,SA-β-gal-positive cells,[7],increased
same,total cell count per microscopic field (SYTO-green staining),[7],decrease
same,N-acetyl-β-d-glucosaminidase activity,[8],does not impair; also recorded: No difference
same,"fluorescence intensity of pH-sensitive dye (pHrodo Green), inversely related to lysosomal pH","[9]; ECs, esomeprazole 5 and 10 μmol/L, 3 passages (P4-6), vs vehicle (DMSO)",significantly reduced
same,pHrodo red fluorescence (lysosomal distribution),"[9]; second pH-sensitive dye, ESO treated vs vehicle treated ECs",reduced; also recorded: qualitatively similar findings
same,superoxide anion (dihydroethidium),[10],more
same,NO generation (diamino fluorescein 2-diacetate staining),[11],less
same,telomerase expression or activity,telomerase,neither group of ECs manifested telomerase expression or activity
same,expression of COL1A1,[12]; EndoMT gene,upregulated
same,expression of SMAD3,[12]; EndoMT gene,upregulated
same,expression of TWIST1,[12]; EndoMT gene,upregulated
same,expression of DDAH1/2,[12]; normalized to GAPDH,decrease
same,expression of eNOS,[12]; normalized to GAPDH,decrease
same,expression of iNOS,[12]; normalized to GAPDH,decrease
same,expression of von Willebrand factor,[12],decline
same,plasminogen activator inhibitor (PAI-1) message expression,[12],upregulated
same,expression of cell cycle inhibitor p21 gene,[12]; chronic treatment,increased
same,total nitrate levels (Griess),[13],decrease
same,activity of lysosomal cathepsin-B,lysosomal cathepsin B,reduced
same,"expression of all 6 genes of the shelterin complex (TRF1, TRF2, POT1, RAP1, TIN2, TPP1)",shelterin complex,global downregulation
same,protein aggregates,[14],increase
Cc1nc2c(OCc3ccccc3)cccn2c1CC#N [SCH-28080],endothelial senescence / aging (overall finding),[7],accelerated
same,SA-β-gal-positive cells,[7],increased
same,total cell count per microscopic field (SYTO-green staining),[7],decrease

# — patent US20200338056A1, “INDUCTION OF SENESCENCE USING PROTON PUMP INHIBITORS” (THE METHODIST HOSPITAL SYSTEM, priority 2016, published 2020)
